From paper PMC3662789, “Structural Investigation of a Novel N-Acetyl Glucosamine Binding Chi-Lectin Which Reveals Evolutionary Relationship with Class III Chitinases” (PLoS ONE, 2013)

Target: T1, TCLL (tamarind chitinase like lectin) (Tamarindus indica, UniProt S4S1V9)
T1 construct: monomer, glycosylated at Asn146; 33440 Da (deglycosylated 31811 Da); 266 residues modelled (7-272)
Experiment: isothermal titration calorimetry (single-site model)
Assay type: binding
Conditions: 20 mM Tris, pH 7.4, 25°C; 0.3 mM protein, 8 mM sugar in syringe; crystal complex at 1.6 Å with two surface sites S1 and S2

T1 sequence (S4S1V9 entry or part of it): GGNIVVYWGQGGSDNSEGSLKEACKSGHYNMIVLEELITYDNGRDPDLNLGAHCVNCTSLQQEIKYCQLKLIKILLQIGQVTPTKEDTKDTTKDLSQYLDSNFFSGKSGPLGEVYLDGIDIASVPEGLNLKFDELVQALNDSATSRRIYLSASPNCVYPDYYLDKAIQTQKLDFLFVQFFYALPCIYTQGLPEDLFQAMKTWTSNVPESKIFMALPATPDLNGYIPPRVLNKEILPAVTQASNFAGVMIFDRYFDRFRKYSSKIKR

- Ka: 2.9×10^3
SMILES: CC(=O)N[C@H]1C(O)O[C@H](CO)[C@@H](O)[C@@H]1O (stereo partly shown) [N-acetyl glucosamine]
